These results are taken from patent publication US20230192705A1, “SHP2 INHIBITORS, COMPOSITIONS AND USES THEREOF” (Betta Pharmaceuticals Co., Ltd, priority 2020, published 2023).

pIC50: −log10 of the molar value. A value given as a limit tells only on which side of the number the result lay.

The target of the assay is T1, SHP2 (Homo sapiens, UniProt Q06124).
T1 sequence (Q06124 1-593): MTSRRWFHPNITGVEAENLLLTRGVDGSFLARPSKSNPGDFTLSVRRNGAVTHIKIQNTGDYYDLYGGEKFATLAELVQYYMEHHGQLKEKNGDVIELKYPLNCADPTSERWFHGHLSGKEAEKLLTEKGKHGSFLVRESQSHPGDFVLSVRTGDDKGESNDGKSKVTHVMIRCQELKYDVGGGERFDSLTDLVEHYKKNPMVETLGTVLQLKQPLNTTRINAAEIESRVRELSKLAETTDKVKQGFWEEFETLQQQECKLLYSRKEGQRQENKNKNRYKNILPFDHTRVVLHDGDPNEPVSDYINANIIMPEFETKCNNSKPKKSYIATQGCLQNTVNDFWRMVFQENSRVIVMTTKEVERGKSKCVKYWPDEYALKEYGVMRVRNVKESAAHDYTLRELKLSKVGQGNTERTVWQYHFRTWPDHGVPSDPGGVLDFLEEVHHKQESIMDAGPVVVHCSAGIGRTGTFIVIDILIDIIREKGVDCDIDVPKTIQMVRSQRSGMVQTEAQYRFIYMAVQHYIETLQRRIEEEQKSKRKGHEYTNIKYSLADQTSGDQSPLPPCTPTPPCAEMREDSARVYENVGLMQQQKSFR
The assay can be described thus: SHP2 allosteric inhibitor enzyme activity assay (DiFMUP fluorescence). It is filed as biochemical. As to conditions: class symbols. From the text: SHP2 is activated by the binding of a bis-tyrosyl-phosphorylated peptide to its Src homologous 2 (SH2) domain. This subsequent activation step leads to the release of the automatic inhibition interface of SHP2, which in turn activates the SHP2 protein tyrosine phosphatase (PTP) and can be used for substrate recognition and reaction catalysis. The catalytic activity of SHP2 was monitored using the alternative DiFMUP in a rapid fluorescence assay format.
Assay procedures are as follows:
(1) Compound Formulation:
The compound of the present invention (10 mM stock solution) was diluted to a suitable multiple with 100% DMSO and assay buffer, and the final test concentration of the compound of the present invention was 1 μM, 0.333 μM, 0.111 μM, 0.0370 μM, 0.0124 μM, 0.00412 μM, 0.00137 μM, 0.00046 μM, 0.00015 μM, 0.00 μM;
(2) Preparation of Enzyme Reaction Working Fluid:
SHP2 enzyme activity was performed using a final reaction volume of 50 μL and the following assay buffer conditions in 96-well black polystyrene plates (flat bottom, low flange, non-bonding surface) (Perki Elmer, Cat #6005270) at room temperature: 60 mM HEPES, 75 mM NaCl, 75 mM KCl, 0.05% BRIJ-35, 1 mM EDTA, 5 mM DTT.
(3) Enzyme Catalytic Reaction and Data Monitoring:
Compounds of the present invention were added to the corresponding 96-well plates, and no compound and enzyme were provided as blank test wells. SHP2 Activating Peptide (IRS1_pY1172 (dPEG8)pY1222) was placed on ice for melting, and 0.5 μM was added per well, then 0.2 ng SHP2 protein samples were added to corresponding well plates, and incubated at room temperature for 1 hour. Substrate DiFMUP (Invitrogen, Cat #D6567) was added to the reaction at room temperature for 1 hour. Fluorescence signals were monitored using an enzyme reader (Envision, Perki Elmer) using excitation wavelengths and emission wavelengths of 340 nm and 450 nm, respectively.
Inhibition %=[1−(Conversion_sample−Conversion_min)/(Conversion_max−Conversion_min)]*100% Calculation formula: […]
where: Conversion_sample is the mean reading of the sample wells; Conversion_min is the mean reading of blank control wells, representing the reading of the wells without enzyme; Conversion_max is the mean of positive control wells, representing the reading of the wells without inhibitor.
The dose-response curve is fitted with GraphPad Prism software and IC50 was calculated by the “log[inhibitor] vs. response-variable slope” program.
`N#Cc1cccc(C2(c3n[nH]c4nc(N5CCC6(CC5)Cc5ccccc5[C@H]6N)[nH]c(=O)c34)CC2)c1` [Example 35, (S)-3-(1-(6-(1-amino-1,3-dihydrospiro[indene-2,4′-piperidin]-1′-yl)-4-oxo-4,5-dihydro-1H-pyrazolo[3,4-d]pyrimidin-3-yl)cyclopropyl)benzonitrile] showed a pIC50 of at least 7.70.

`Cn1cc(-c2cccc(C3(c4n[nH]c5nc(N6CCC7(CC6)Cc6ccccc6[C@H]7N)[nH]c(=O)c45)CC3)c2)cn1` [Example 36, (S)-6-(1-amino-1,3-dihydrospiro[indene-2,4′-piperidin]-1′-yl)-3-(1-(3-(1-methyl-1H-pyrazol-4-yl)phenyl)cyclopropyl)-1,5-dihydro-4H-pyrazolo[3,4-d]pyrimidin-4-one] showed a pIC50 of at least 7.70.

In turn, `Cn1ncc(-c2cccc(C3(c4n[nH]c5nc(N6CCC7(CC6)Cc6ccccc6[C@H]7N)[nH]c(=O)c45)CC3)c2)n1` [Example 37, (S)-6-(1-amino-1,3-dihydrospiro[indene-2,4′-piperidin]-1′-yl)-3-(1-(3-(2-methyl-2H-1,2,3-triazol-4-yl)phenyl)cyclopropyl)-1,5-dihydro-4H-pyrazolo[3,4-d]pyrimidin-4-one] showed a pIC50 of at least 7.70.

The molecule `N[C@@H]1c2ccccc2CC12CCN(c1nc3[nH]nc(C4(c5cccc(C6CCOC6)c5)CC4)c3c(=O)[nH]1)CC2` (stereo partly drawn) [Example 39, 6-((S)-1-amino-1,3-dihydrospiro[indene-2,4′-piperidin]-1′-yl)-3-(1-(3-(tetrahydrofuran-3-yl)phenyl)cyclopropyl)-1,5-dihydro-4H-pyrazolo[3,4-d]pyrimidin-4-one] had a pIC50 of at least 7.70.

In turn, `N[C@@H]1c2ccccc2CC12CCN(c1nc3[nH]nc(C4(c5cccc(C6CCOCC6)c5)CC4)c3c(=O)[nH]1)CC2` [Example 40, (S)-6-(1-amino-1,3-dihydrospiro[indene-2,4′-piperidin]-1′-yl)-3-(1-(3-(tetrahydro-2H-pyran-4-yl)phenyl)cyclopropyl)-1,5-dihydro-4H-pyrazolo[3,4-d]pyrimidin-4-one] showed a pIC50 of at least 7.70.

With `CCOC(=O)Nc1cccc(C2(c3n[nH]c4nc(N5CCC6(CC5)Cc5ccccc5[C@H]6N)[nH]c(=O)c34)CC2)c1` [Example 41, ethyl (S)-(3-(1-(6-(1-amino-1,3-dihydrospiro[indene-2,4′-piperidin]-1′-yl)-4-oxo-4,5-dihydro-1H-pyrazolo[3,4-d]pyrimidin-3-yl)cyclopropyl)phenyl)carbamate], the pIC50 was at least 7.70.

For `Nc1cccc(C2(c3n[nH]c4nc(N5CCC6(CC5)Cc5ccccc5[C@H]6N)[nH]c(=O)c34)CC2)c1` [Example 43, (S)-6-(1-amino-1,3-dihydrospiro[indene-2,4′-piperidin]-1′-yl)-3-(1-(3-aminophenyl)cyclopropyl)-1,5-dihydro-4H-pyrazolo[3,4-d]pyrimidin-4-one], the pIC50 was at least 7.70.

The molecule `COCCOc1cccc(C2(c3n[nH]c4nc(N5CCC6(CC5)Cc5ccccc5[C@H]6N)[nH]c(=O)c34)CC2)c1` [Example 44, (S)-6-(1-amino-1,3-dihydrospiro[indene-2,4′-piperidin]-1′-yl)-3-(1-(3-(2-methoxyethoxy)phenyl)cycloprop-yl)-1,5-dihydro-4H-pyrazolo[3,4-d]pyrimidin-4-one] showed a pIC50 of at least 7.70.

Molecule `Nc1nccc(C2(c3n[nH]c4nc(N5CCC6(CC5)Cc5ccccc5[C@H]6N)[nH]c(=O)c34)CC2)c1Cl` [Example 46, (S)-6-(1-amino-1,3-dihydrospiro[indene-2,4′-piperidin]-1′-yl)-3-(1-(2-amino-3-chloropyridin-4-yl)cyclopropyl)-1,5-dihydro-4H-pyrazolo[3,4-d]pyrimidin-4-one] had a pIC50 of at least 7.70.

As for `N[C@@H]1c2ccccc2CC12CCN(c1nc3[nH]nc(C4(c5ccnc(Cl)c5Cl)CC4)c3c(=O)[nH]1)CC2` [Example 48, (S)-6-(1-amino-1,3-dihydrospiro[indene-2,4′-piperidin]-1′-yl)-3-(1-(2,3-dichloropyridin-4-yl)cyclopropyl)-1,5-dihydro-4H-pyrazolo[3,4-d]pyrimidin-4-one], the pIC50 is at least 7.70.

Molecule `N[C@@H]1c2ccccc2CC12CCN(c1nc3[nH]nc(C4(c5cccc(Cl)c5Cl)CC4)c3c(=O)[nH]1)CC2` [Example 49, (S)-6-(1-amino-1,3-dihydrospiro[indene-2,4′-piperidin]-1′-yl)-3-(1-(2,3-dichlorophenyl)cyclopropyl)-1,5-dihydro-4H-pyrazolo[3,4-d]pyrimidin-4-one] showed a pIC50 of at least 7.70.

Regarding `N[C@@H]1c2ccccc2CC12CCN(c1nc3[nH]nc(C4(c5cccc(O)c5Cl)CC4)c3c(=O)[nH]1)CC2` [Example 50, (S)-6-(1-amino-1,3-dihydrospiro[indene-2,4′-piperidin]-1′-yl)-3-(1-(2-chloro-3-hydroxyphenyl)cyclopropyl)-1,5-dihydro-4H-pyrazolo[3,4-d]pyrimidin-4-one], the pIC50 was at least 7.70.

The molecule `N[C@@H]1c2ccccc2CC12CCN(c1nc3[nH]nc(C4(c5cnccn5)CC4)c3c(=O)[nH]1)CC2` [Example 51, (S)-6-(1-amino-1,3-dihydrospiro[indene-2,4′-piperidin]-1′-yl)-3-(1-(pyrazin-2-yl)cyclopropyl)-1,5-dihydro-4H-pyrazolo[3,4-d]pyrimidin-4-one] had a pIC50 of at least 7.70.

`N[C@@H]1c2ccccc2CC12CCN(c1nc3[nH]nc(C4(c5cccc(OC(F)F)c5)CC4)c3c(=O)[nH]1)CC2` [Example 52, (S)-6-(1-amino-1,3-dihydrospiro[indene-2,4′-piperidin]-1′-yl)-3-(1-(3-(difluoromethoxy)plienyl)cyclo-propyl)-1,5-dihydro-4H-pyrazolo[3,4-d]pyrimidin-4-one] gave a pIC50 of at least 7.70.

Consider `N[C@@H]1c2ccccc2CC12CCN(c1nc3[nH]nc(C4(c5ccnc(OC(F)F)c5)CC4)c3c(=O)[nH]1)CC2` [Example 53, (S)-6-(1-amino-1,3-dihydrospiro[indene-2,4′-piperidin]-1′-yl)-3-(1-(2-(difluoromethoxy)pyridin-4-yl)cyclopropyl)-1,5-dihydro-4H-pyrazolo[3,4-d]pyrimidin-4-one], for which the pIC50 was at least 7.70.

Turning to `CN(C)c1cc(C2(c3n[nH]c4nc(N5CCC6(CC5)Cc5ccccc5[C@H]6N)[nH]c(=O)c34)CC2)ccn1` [Example 54, (S)-6-(1-amino-1,3-dihydrospiro[indene-2,4′-piperidin]-1′-yl)-3-(1-(2-(dimethylamino)pyridin-4-yl)cyclopropyl)-1,5-dihydro-4H-pyrazolo[3,4-d]pyrimidin-4-one], the pIC50 was at least 7.70.

Molecule `N[C@@H]1c2ccccc2CC12CCN(c1nc3[nH]nc(C4(c5ccnc(CN6CCCC6)c5)CC4)c3c(=O)[nH]1)CC2` [Example 55, (S)-6-(1-amino-1,3-dihydrospiro[indene-2,4′-piperidin]-1′-yl)-3-(1-(2-(pyrrolidin-1-ylmethyl)pyridin-4-yl)cyclopropyl)-1,5-dihydro-4H-pyrazolo[3,4-d]pyrimidin-4-one] had a pIC50 of 7.22 to 7.70.

Regarding `N[C@@H]1c2ccccc2CC12CCN(c1nc3[nH]nc(C4(c5cnn(-c6ccccc6)c5)CC4)c3c(=O)[nH]1)CC2` [Example 56, (S)-6-(1-amino-1,3-dihydrospiro[indene-2,4′-piperidin]-1′-yl)-3-(1-(1-phenyl-1H-pyrazol-4-yl)cyclopropyl)-1,5-dihydro-4H-pyrazolo[3,4-d]pyrimidin-4-one], the negative-log IC50 (pIC50) is 7.22 to 7.70.

As for `N[C@@H]1c2ccccc2CC12CCN(c1nc3[nH]nc(C4(c5cnn(Cc6ccccc6)c5)CC4)c3c(=O)[nH]1)CC2` [Example 57, (S)-6-(1-amino-1,3-dihydrospiro[indene-2,4′-piperidin]-1′-yl)-3-(1-(1-benzyl-1H-pyrazol-4-yl)cyclopropyl)-1,5-dihydro-4H-pyrazolo[3,4-d]pyrimidin-4-one], the pIC50 was at least 7.70.
